How the values were obtained:
[1] = test system: chronic primary insomnia patients with sleep maintenance difficulties; assay: Phase III study of doxepin, subjective assessments by morning questionnaire (sWASO, LSO, sTST); details: ITT; for LSO (subjective latency to sleep onset), Mean (SD) / sTST (subjective total sleep time), Mean (SD) / sTST, Median / sWASO (subjective wake after sleep onset), Mean (SD): Baseline (mean of Days −5 and −4)
Excerpt: (§1) Patients with at least a 3-month history of primary insomnia, according to Diagnostic and Statistical Manual of Mental Disorders, Fourth Edition Text Revision (DSM-IV-TR)-defined primary insomnia were enrolled.
(§2) After the PSG Screening and Baseline periods, patients began a 35-day double-blind treatment period during which they were given study drug supplies at each scheduled visit (Visits 4, 5, and 6). The scheduled study visits consisted of two consecutive nights of 8-hour PSG recording in the sleep center and next day assessments to assess sedative efficacy. Patients were asked to complete hangover/residual effects assessments, morning and evening questionnaires, and the Benzodiazepine Withdrawal Symptom Questionnaire (BWSQ) at each of these visits.
Subjective Variables: Subjective assessments included data obtained on Days 2, 16, and 30, and included subjective TST (sTST), subjective WASO (sWASO), latency to sleep onset (LSO), subjective NAASO (sNAASO), and sleep quality (all assessed by a morning questionnaire), daytime functioning (assessed by an evening questionnaire), average nightly sTST during at-home administration (5 days before the PSG visit), CGI rating scale for Severity and Therapeutic Effect completed by the clinician and patient, and a measure of insomnia severity (assessed by ISI).
(§3) Methods used to analyze other endpoints were the same as those used to analyze WASO. For LPS, latency to REM sleep, latency to Stage 2 sleep, and LSO, data were expected to be log-normally distributed and were analyzed using log-transformed values (base 10). The safety data were analyzed primarily using descriptive statistical methods.
(§4) All efficacy analyses were performed on the Intent-to-treat (ITT) analysis set. […] Data were analyzed as randomized and based on observed cases.

[2] = Phase III study of doxepin, safety assessments (body weight, residual effects, withdrawal symptoms, laboratory tests, ECG); type: in vivo, human
Protocol: Safety assessments including adverse events (AEs), vitals, and neurological assessments were performed throughout the study period. Other safety assessments, including clinical laboratory tests, electrocardiograms (ECGs), and physical examinations (PEs) were performed before and after the study treatment period. For early termination, all safety assessments, including AEs neurological assessments, clinical laboratory tests, ECGs, vitals, and PEs were performed.
Safety: Safety was assessed based on AEs, clinical laboratory tests (hematology, serum chemistry, and urinalysis), vital signs, physical examinations, neurological assessments, 12-lead ECGs, and ratings of hangover/residual effects (digit-symbol substitution test (DSST), symbol copying test (SCT), and the visual analog scale (VAS) for sleepiness), assessment of rebound insomnia using PSG recordings during the discontinuation period, and withdrawal symptoms using the benzodiazepine withdrawal symptom questionnaire (BWSQ).
Safety analyses included all randomized patients who received at least one dose of double-blind study medication. Treatment assignment for safety data was based on the treatment actually received.

[3] = test system: chronic primary insomnia patients with sleep maintenance difficulties; assay: Phase III study of doxepin, 8-hour PSG efficacy variables (WASO, TST, SE, LPS)
Excerpt: as §1
Patients were screened (Visit 1) to determine study eligibility and asked to discontinue any protocol-disallowed prescription or over-the-counter (OTC) medications used as sleep medication. At the beginning of the first week (polysomnography [PSG] Screening, Visit 2), eligible patients began two weeks of single-blind placebo dosing and had two consecutive nights of 8-hour PSG recording in the sleep center. Patients were required to meet the PSG screening criteria to remain eligible for the study. Patients were allowed to leave the sleep center during the day after the PSG Screening nights and continued to take single-blind placebo after PSG Screening (Visit 2) for five consecutive nights at home.
Patients were allowed to leave the sleep center during the day after the PSG nights and continued taking single-blind placebo for five consecutive nights at home.
as §2
Primary Efficacy: The primary efficacy variable was wake after sleep onset (WASO) obtained on Night 1 as determined by PSG recordings using the ITT analysis set.
Additional PSG efficacy variables: Additional efficacy variables obtained on the first PSG assessment nights (Nights 1 and 29) included WASO (Night 29), wake time during sleep (WTDS), total sleep time (TST), sleep efficiency (SE), including whole night, third of the night, and by hour, and latency to persistent sleep (LPS), latency to Stage 2 sleep, number of awakenings after sleep onset (NAASO), total wake time (TWT), wake time after sleep (WTAS), and, sleep architecture including percentage and minutes of Stage 1, 2, and 3/4 non-rapid eye movement (NREM) sleep, percentage and minutes of rapid eye movement (REM) sleep, and latency to REM sleep.
as §3, §4

[4] = doxepin 3 mg group, Baseline, ITT
[5] = doxepin 3 mg, Night 1, ITT, p<0.0001 vs placebo
[6] = doxepin 3 mg, Night 15, ITT, p 0.1977 vs placebo
[7] = doxepin 3 mg, Night 29, ITT, p 0.0262 vs placebo

**Q.** For `CN(C)CCC=C1c2ccccc2COc2ccccc21` [Doxepin, 11-(3-dimethylaminopropylidene)-6,11-dihydrodibenzo (b,e)oxepin], which “LSO (subjective latency to sleep onset), Mean (SD)” value ([1]; Doxepin HCl 3 mg group) is on record?
**A.** 61.4 (39.43) minutes

**Q.** And the “sTST (subjective total sleep time), Mean (SD)” value ([1]; Doxepin HCl 3 mg group)?
**A.** 330.0 (63.23) minutes

**Q.** What about the “sTST, Median” value ([1]; Doxepin HCl 3 mg group) of the same compound?
**A.** 330.0 min

**Q.** And the “sTST, Mean (SD)” value ([1]; Doxepin HCl 3 mg, Visit 4, Day 2, p 0.0169 vs placebo)?
**A.** 361.8 (64.03) minutes

**Q.** What about the “LSO, Mean (SD)” value ([1]; Doxepin HCl 3 mg, Visit 4, Day 2, p 0.2296 vs placebo) of the same compound?
**A.** 50.3 (36.73) minutes

**Q.** And the “sTST, Mean (SD)” value ([1]; Doxepin HCl 3 mg, Visit 5, Day 16, p 0.3260 vs placebo)?
**A.** 361.0 (67.22) minutes

**Q.** What about the “LSO, Mean (SD)” value ([1]; Doxepin HCl 3 mg, Visit 5, Day 16, p 0.9838 vs placebo) of the same compound?
**A.** 52.9 (35.17) minutes

**Q.** And the “LSO, Mean (SD)” value ([1]; Doxepin HCl 3 mg, Visit 6, Day 30, p 0.3567 vs placebo)?
**A.** 48.9 (34.71) minutes

**Q.** What about the “sTST, Mean (SD)” value ([1]; Doxepin HCl 3 mg, Visit 6, Day 30, p 0.9972 vs placebo) of the same compound?
**A.** 360.7 (68.72) minutes

**Q.** And the “LSO (subjective latency to sleep onset), Mean (SD)” value ([1]; Doxepin HCl 6 mg group)?
**A.** 64.0 (43.45) minutes

**Q.** What about the “sTST (subjective total sleep time), Mean (SD)” value ([1]; Doxepin HCl 6 mg group) of the same compound?
**A.** 339.3 (61.45) minutes

**Q.** What about the “sTST, Median” value ([1]; Doxepin HCl 6 mg group) of the same compound?
**A.** 330.0 min

**Q.** And the “sTST, Mean (SD)” value ([1]; Doxepin HCl 6 mg, Visit 4, Day 2, p 0.0256 vs placebo)?
**A.** 369.0 (78.39) minutes

**Q.** And the “LSO, Mean (SD)” value ([1]; Doxepin HCl 6 mg, Visit 4, Day 2, p 0.0960 vs placebo)?
**A.** 55.7 (56.96) minutes

**Q.** And the “sTST, Mean (SD)” value ([1]; Doxepin HCl 6 mg, Visit 5, Day 16, p 0.1611 vs placebo)?
**A.** 371.5 (72.06) minutes

**Q.** What about the “LSO, Mean (SD)” value ([1]; Doxepin HCl 6 mg, Visit 5, Day 16, p 0.2689 vs placebo) of the same compound?
**A.** 48.7 (42.35) minutes

**Q.** And the “sTST, Mean (SD)” value ([1]; Doxepin HCl 6 mg, Visit 6, Day 30, p 0.6831 vs placebo)?
**A.** 373.0 (75.30) minutes

**Q.** And the “LSO, Mean (SD)” value ([1]; Doxepin HCl 6 mg, Visit 6, Day 30, p 0.8242 vs placebo)?
**A.** 48.3 (47.40) minutes

**Q.** What about the “sWASO (subjective wake after sleep onset), Mean (SD)” value ([1]; doxepin 3 mg group) of the same compound?
**A.** 80.6 (48.12) minutes

**Q.** What about the “sWASO, Mean (SD)” value ([1]; doxepin 3 mg, Visit 4, Day 2, p 0.0005 vs placebo) of the same compound?
**A.** 55.7 (39.81) minutes

**Q.** What about the “sWASO, Mean (SD)” value ([1]; doxepin 3 mg, Visit 5, Day 16, p 0.2582 vs placebo) of the same compound?
**A.** 59.0 (54.14) minutes

**Q.** What about the “sWASO, Mean (SD)” value ([1]; doxepin 3 mg, Visit 6, Day 30, p 0.8958 vs placebo) of the same compound?
**A.** 63.1 (47.24) minutes

**Q.** And the “sWASO (subjective wake after sleep onset), Mean (SD)” value ([1]; doxepin 6 mg group)?
**A.** 78.2 (43.06) minutes

**Q.** What about the “sWASO, Mean (SD)” value ([1]; doxepin 6 mg, Visit 4, Day 2, p 0.0007 vs placebo) of the same compound?
**A.** 54.9 (44.76) minutes

**Q.** What about the “sWASO, Mean (SD)” value ([1]; doxepin 6 mg, Visit 5, Day 16, p 0.3357 vs placebo) of the same compound?
**A.** 58.4 (49.09) minutes

**Q.** What about the “sWASO, Mean (SD)” value ([1]; doxepin 6 mg, Visit 6, Day 30, p 0.8020 vs placebo) of the same compound?
**A.** 58.2 (53.07) minutes

**Q.** And the “Changes in other clinical laboratory tests, vital sign measurements, physical examinations, neurological assessments, or ECG parameters” value ([2]; 3 mg and 6 mg)?
**A.** no clinically relevant changes

**Q.** And the “Next day residual effects” value ([2]; 3 mg and 6 mg)?
**A.** no significant next day residual effects

**Q.** And the Withdrawal effects ([2]; 3 mg and 6 mg, abrupt discontinuation)?
**A.** no withdrawal effects

**Q.** And the “Body Weight, Change from Screening, mean (±SD)” value ([2]; Doxepin HCl 3 mg)?
**A.** 0.3 (2.21) kg

**Q.** What about the “Body Weight, Change from Screening, mean (±SD)” value ([2]; Doxepin HCl 6 mg) of the same compound?
**A.** 0.0 (2.19) kg

**Q.** And the “Sedative tolerance (sleep maintenance variables across study visits, PSG)” value ([3]; 3 mg and 6 mg, 35-day double-blind treatment)?
**A.** no evidence of sedative tolerance

**Q.** And the “8-hour WASO, Mean (SD)” value ([3]; doxepin 3 mg group, Baseline (single-blind placebo), ITT)?
**A.** 67.8 (33.56) minutes

**Q.** What about the “LPS (latency to persistent sleep, PSG), Mean (SD)” value [3, 4] of the same compound?
**A.** 35.9 (29.84) minutes

**Q.** What about the “SE - Hour 8 (PSG), Mean (SD)” value [3, 4] of the same compound?
**A.** 74.9 (22.87) %

**Q.** And the “TST (8-hour PSG), Mean (SD)” value [3, 4]?
**A.** 380.3 (46.09) minutes

**Q.** And the “8-hour WASO, Mean (SD)” value ([3]; doxepin 3 mg, Night 1 (primary), ITT, p<0.0001 vs placebo)?
**A.** 41.4 (31.51) minutes

**Q.** What about the “LPS (PSG), Mean (SD)” value ([3]; doxepin 3 mg, Night 1, ITT, p 0.0110 vs placebo) of the same compound?
**A.** 26.7 (23.42) minutes

**Q.** And the “SE (8-hour PSG), Mean (SD)” value [3, 5]?
**A.** 86.5 (8.68) %

**Q.** What about the “SE - Hour 8 (PSG), Mean (SD)” value [3, 5] of the same compound?
**A.** 87.8 (14.28) %

**Q.** What about the “TST (8-hour PSG), Mean (SD)” value [3, 5] of the same compound?
**A.** 415.3 (41.65) minutes

**Q.** And the “8-hour WASO, Mean (SD)” value ([3]; doxepin 3 mg, Night 15, ITT, p 0.0053 vs placebo)?
**A.** 44.8 (27.26) minutes

**Q.** And the “SE (8-hour PSG), Mean (SD)” value [3, 6]?
**A.** 83.7 (10.12) %

**Q.** What about the “TST (8-hour PSG), Mean (SD)” value [3, 6] of the same compound?
**A.** 401.7 (48.56) minutes

**Q.** What about the “LPS (PSG), Mean (SD)” value ([3]; doxepin 3 mg, Night 15, ITT, p 0.3644 vs placebo) of the same compound?
**A.** 38.2 (40.52) minutes

**Q.** What about the “SE (8-hour PSG), Mean (SD)” value [3, 7] of the same compound?
**A.** 85.0 (10.92) %

**Q.** And the “TST (8-hour PSG), Mean (SD)” value [3, 7]?
**A.** 408.1 (52.41) minutes

**Q.** What about the “8-hour WASO, Mean (SD)” value ([3]; doxepin 3 mg, Night 29, ITT, p 0.0299 vs placebo) of the same compound?
**A.** 47.3 (43.53) minutes

**Q.** What about the “SE - Hour 8 (PSG), Mean (SD)” value ([3]; doxepin 3 mg, Night 29, ITT, p 0.0524 vs placebo) of the same compound?
**A.** 81.9 (20.81) %

**Q.** What about the “LPS (PSG), Mean (SD)” value ([3]; doxepin 3 mg, Night 29, ITT, p 0.9008 vs placebo) of the same compound?
**A.** 28.0 (25.99) minutes

Reference: patent US20130150434A1 (SOMAXON PHARMACEUTICALS, INC., priority 2006, published 2013)
